# Results published in PMC11156913, “New sulfonamide-based glycosides incorporated 1,2,3-triazole as cytotoxic agents through VEGFR-2 and carbonic anhydrase inhibitory activity” (Scientific Reports, 2024).
# Several values for one entry are separate records, joined by “and”; a condition that tells them apart may be missing. Equal values may be shown once.
# Experiments:
# [1] = test system: liver HepG-2 cancer cell line; assay: In vitro cytotoxic activity (MTT assay), HepG-2
# Excerpt: (§1) The supplemental file contained extra details.
# [2] = test system: breast MCF-7 cancer cell line; assay: In vitro cytotoxic activity (MTT assay), MCF-7; format: cell-based, human
# Excerpt: as §1
# [3] = test system: colorectal HCT-116 cancer cell line; assay: In vitro cytotoxic activity (MTT assay), HCT-116; format: cell-based, human
# Excerpt: as §1
# [4] = test system: retinal pigment epithelial normal RPE-1 cell line; assay: Cytotoxic activity (MTT assay) against normal cell line RPE-1; format: cell-based; details: Homo sapiens, normal RPE-1 cells, read-out: IC50 (mean ± SD) RPE-1
# Excerpt: Furthermore, the MTT assay was utilized to estimate the cytotoxic activity of the extremely potent derivatives 4, 7 and 9 against the normal cell line RPE-1, with the aim of examining their safety profiles (Table 1). […] They could therefore be thought of as safe cytotoxic agents.
# as §1
# [5] = target: VEGFR-2 (Homo sapiens, UniProt P35968); assay: In vitro inhibitory assessment against VEGFR-2 (ELISA, MCF-7 cell homogenates); format: cell-based; details: read-out: IC50 (mean ± SD) VEGFR-2
# VEGFR-2, sequence (P35968 20-1356): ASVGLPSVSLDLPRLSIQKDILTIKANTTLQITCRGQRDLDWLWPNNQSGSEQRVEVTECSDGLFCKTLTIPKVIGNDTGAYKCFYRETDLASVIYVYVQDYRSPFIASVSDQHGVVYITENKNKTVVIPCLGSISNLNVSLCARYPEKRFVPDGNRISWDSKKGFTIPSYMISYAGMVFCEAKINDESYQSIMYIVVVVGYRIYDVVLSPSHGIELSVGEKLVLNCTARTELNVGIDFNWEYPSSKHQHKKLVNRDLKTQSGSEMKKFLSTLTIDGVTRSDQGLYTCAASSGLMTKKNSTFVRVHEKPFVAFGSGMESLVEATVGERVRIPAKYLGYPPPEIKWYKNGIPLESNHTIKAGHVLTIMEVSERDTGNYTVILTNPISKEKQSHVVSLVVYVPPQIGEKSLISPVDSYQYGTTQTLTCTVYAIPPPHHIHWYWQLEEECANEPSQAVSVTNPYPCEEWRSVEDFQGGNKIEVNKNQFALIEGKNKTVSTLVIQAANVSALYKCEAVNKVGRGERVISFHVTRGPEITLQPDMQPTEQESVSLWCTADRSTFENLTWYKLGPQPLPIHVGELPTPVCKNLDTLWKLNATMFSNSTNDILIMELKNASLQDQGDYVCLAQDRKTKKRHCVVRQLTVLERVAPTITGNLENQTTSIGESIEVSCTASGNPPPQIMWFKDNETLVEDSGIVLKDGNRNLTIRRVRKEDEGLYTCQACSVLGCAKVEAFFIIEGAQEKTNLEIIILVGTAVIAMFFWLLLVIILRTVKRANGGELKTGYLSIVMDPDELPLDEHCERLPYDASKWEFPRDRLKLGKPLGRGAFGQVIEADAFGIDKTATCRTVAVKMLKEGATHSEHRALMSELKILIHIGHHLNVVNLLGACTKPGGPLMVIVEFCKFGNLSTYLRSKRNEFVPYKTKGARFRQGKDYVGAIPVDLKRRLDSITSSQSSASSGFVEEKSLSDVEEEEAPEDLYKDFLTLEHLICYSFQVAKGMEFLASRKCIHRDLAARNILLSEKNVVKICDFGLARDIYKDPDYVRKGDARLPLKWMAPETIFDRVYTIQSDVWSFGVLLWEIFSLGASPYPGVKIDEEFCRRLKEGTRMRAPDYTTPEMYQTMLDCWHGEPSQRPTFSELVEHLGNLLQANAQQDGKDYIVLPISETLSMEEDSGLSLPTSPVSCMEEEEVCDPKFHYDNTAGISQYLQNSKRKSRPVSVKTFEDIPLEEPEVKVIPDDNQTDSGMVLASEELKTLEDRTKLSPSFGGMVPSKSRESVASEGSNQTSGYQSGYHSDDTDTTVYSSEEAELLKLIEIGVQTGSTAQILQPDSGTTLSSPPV
# Protocol: (§2) There was further information in the supplemental file.
# The cells were harvested and the homogenates were prepared in saline using a tight pestle homogenizer until complete cell disruption. The kit uses a double-antibody sandwich enzyme-linked immunosorbent assay (ELISA) to determine the level of human VEGFR-2 in samples. A monoclonal antibody for VEGFR-2 was pre-coated onto 96-well plates. The test samples are added to the wells and a biotinylated detection polyclonal antibody from goat specific for VEGFR-2 was added subsequently followed by washing with PBS buffer. Avidin-Biotin-Peroxidase complex was added and the unbound conjugates were washed away with PBS buffer. HRP substrate TMB was used to visualize HRP enzymatic reaction. TMB was catalyzed by HRP to produce a blue color product that changed into yellow after adding acidic stop solution. The density of yellow color is proportional to the human VEGFR-2 amount of the sample captured in the plate. The chroma of color and the concentration of the human VEGFR-2 of the samples were positively correlated and the optical density was determined at 450 nm. The level of human VEGFR-2 in samples was calculated (pg/ml) as duplicate determinations from the standard curve. Percent inhibition was calculated in comparison to control untreated cells.
# [6] = target: T1, hCA IX (Homo sapiens, UniProt Q16790); assay: Carbonic anhydrase inhibition, stopped-flow CO2 hydration, hCA IX; format: biochemical; details: read-out: IC50 (mean ± SD) Carbonic anhydrase isoforms hCA IX
# T1 construct: made in house
# Protocol: as §2
# (§3) An applied photophysics stopped-flow instrument was used for assaying the CA-catalyzed CO2 hydration activity. […] The CO2 concentrations ranged from 1.7 to 17 mM for the determination of the kinetic parameters and inhibition constants. For each inhibitor, at least six traces of the initial 5–10% of the reaction were used for determining the initial rate. The uncatalyzed rates were determined in the same manner and subtracted from the total observed rates. Stock solutions of inhibitor (0.1 mM) were prepared in distilled-deionized water, and dilutions up to 0.01 nM were done thereafter with distilled-deionized water. Inhibitor and enzyme solutions were preincubated together for 15 min at room temperature before assay in order to allow for the formation of the E-I complex. The inhibition constants were obtained by nonlinear least-squares methods using PRISM 3, and the Cheng –Prusoff equation, and represent the mean from at least three different determinations. All CA isoforms were recombinant ones obtained in-house.
# [7] = target: T2, hCA XII (Homo sapiens, UniProt O43570); assay: Carbonic anhydrase inhibition, stopped-flow CO2 hydration, hCA XII; format: biochemical; details: read-out: IC50 (mean ± SD) Carbonic anhydrase isoforms hCA XII
# T2 construct: made in house
# T2 sequence (O43570 25-354): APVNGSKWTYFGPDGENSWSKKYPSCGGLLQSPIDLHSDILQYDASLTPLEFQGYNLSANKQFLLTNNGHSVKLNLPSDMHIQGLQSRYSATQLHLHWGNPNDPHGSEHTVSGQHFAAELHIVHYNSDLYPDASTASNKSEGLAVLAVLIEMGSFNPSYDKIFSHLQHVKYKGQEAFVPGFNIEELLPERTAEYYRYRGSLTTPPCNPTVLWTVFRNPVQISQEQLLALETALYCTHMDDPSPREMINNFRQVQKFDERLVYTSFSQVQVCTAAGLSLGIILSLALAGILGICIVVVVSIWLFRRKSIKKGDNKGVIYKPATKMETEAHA
# Protocol: as §2, §3
# [8] = test system: MCF-7 cells; assay: Cell cycle analysis by flow cytometry (PI); format: cell-based, human; details: 21.15 μM, 24 h, 48 h (Table S6 title)
# Protocol: (§4) The cells were further examined through flow cytometry with annexin-V staining (Figs. 5–7).
# (§5) The examination of cell cycle analysis and apoptosis was explained[66] with the use of flow cytometry. Benzenesulfonamide-1,2,3-triazole-glycosides 9 was applied to MCF-7 cells for a duration of 24 h, and the cells were then incubated at 37 °C. Further details were included in the supplemental file.
# (§6) Cell cycle analysis and apoptosis study were carried out using flow cytometry. MCF-7 cells were seeded at 8×10^4 and incubated at 37°C in 5% CO2 overnight. After treatment with the tested compound 10 for 24 h, cell pellets were collected and centrifuged (300 g, 5 min). For cell cycle analysis cell pellets were fixed with 70% ethanol on ice for 15 min and collected again. The pellets were incubated with propidium iodide (PI) staining solution at room temperature for 1 h and analyzed by a Gallios flow cytometer (Beckman Coulter, Brea, CA, USA). Apoptosis detection was carried out by FITC AnnexinV/PI commercial kit (Becton Dickenson, Franklin Lakes, NJ, USA) following the manufacturer protocol. The samples were analyzed by fluorescence-activated cell sorting (FACS) with a Gallios flow cytometer (Beckman Coulter, Brea, CA, USA) within 1 h after staining. Data were analyzed using Kaluza v 1.2 (Beckman Coulter).
# [9] = test system: MCF-7 cells; assay: Apoptosis detection, Annexin V-FITC/PI flow cytometry; format: cell-based, human; details: 21.15 μM, 24 h
# Protocol: as §4, §5, §6
# [10] = test system: Bax; assay: Bax level in MCF-7 cells; format: cell-based, human; details: 24 h, 21.15 μM
# Excerpt: (§7) Additionally, compound 9 boosted the p53 protein level by 7.4 times in MCF-7 treated cells compared to 125.40 Pg/mL in control cells (Table 3).
# (§8) Bax, Bcl-2 and p53 levels in MCF-7 cells were clarified utilising the previously reported approach for the promising benzenesulfonamide-1,2,3-triazole-glycosides 9.
# (§9) The levels of the apoptotic marker Bax and anti-apoptotic marker Bcl-2 were estimated using BIO RAD iScript TM One-Step RT-PCR kit with SYBR® Green. The procedure of the used kit was done according to the manufacturer’s instructions.
# [11] = test system: Bcl-2; assay: Bcl-2 level in MCF-7 cells; format: cell-based, human; details: 24 h, 21.15 μM
# Excerpt: as §7, §8, §9
# [12] = test system: p53; assay: p53 level in MCF-7 cells (ELISA); format: cell-based, human; details: 24 h, 21.15 μM
# Protocol: as §7, §8
# Human p53 present in MCF-7 cells was determined; using Human p53 ELISA-Kit (CS0070 Sigma) read using spectrophotometer at 450 nm against untreated control cells (negative control) applying the standard protocols of the manufacturers. The samples or standard having human p53 bind to antibodies adsorbed to the microwells. Addition of biotin-conjugated was followed by incubation and addition of dispense of unbound biotin-conjugated streptavidin HRP. Then, the reaction was terminated by adding acid, and the absorbance was measured at 450 nm.
# [13] = test system: lung A-549 cancer cell line; assay: In vitro cytotoxic activity (MTT assay), A-549
# Protocol: Exponentially, cells were placed in 10^4 cells/ well for 24 h, and then add fresh medium which containing different concentration of the tested sample. Serial two-fold dilution of the tested sample were added using a multichannel pipette. […] Rinse the wells using water until no stain. After that, add 30% glacial acetic acid to all wells with shaking plates on Microplate reader (TECAN, Inc.) to measure the absorbance, using a test wavelength of 490 nm. Besides, compare the treated samples with the control cell.
structure (smiles),measurement,setting,value
"CC(=O)O[C@@H]1[C@@H](OC(C)=O)[C@H](OCc2cn(-c3ccc(S(=O)(=O)NC4CCCCC4)cc3)nn2)OC[C@H]1OC(C)=O [Compound 9, N-cyclohexyl-4-(4-([2,3,4-tri-O-acetyl-β-D-xylopyranosyl]oxymethyl)-1H-1,2,3-triazol-1-yl)benzenesulfonamide]",percentage cytotoxicity on HepG-2,[1]; 12.5 µM,58.20±1.50%
same,percentage cytotoxicity on HepG-2,[1]; 25 µM,63.70±2.29%
same,percentage cytotoxicity on HepG-2,[1]; 50 µM,82.59±0.87%
same,percentage cytotoxicity on HepG-2,[1]; 100 µM,82.60±1.73%
same,IC50,"[1]; Homo sapiens, HepG2, read-out: IC50 (mean ± SD) HepG-2",8.39 ± 0.2 µM
same,percentage cytotoxicity on MCF-7,[2]; 12.5 µM,32.60±6.13%
same,percentage cytotoxicity on MCF-7,[2]; 25 µM,52.27±0.43%
same,percentage cytotoxicity on MCF-7,[2]; 50 µM,83.30±1.87%
same,percentage cytotoxicity on MCF-7,[2]; 100 µM,92.73±1.04%
same,inhibition at 100 µM,"[2]; Homo sapiens, MCF7, 100 µM, 48 h, read-out: % inhibition ± SD MCF-7",92.7 ± 1.04%
same,IC50,"[2]; Homo sapiens, MCF7, MCF-7 cells, MTT, read-out: IC50 (mean ± SD) MCF-7",21.2 ± 2.45 µM
same,percentage cytotoxicity on HCT-116,[3]; 12.5 µM,34.51±0.44%
same,percentage cytotoxicity on HCT-116,[3]; 25 µM,53.50±0.93%
same,percentage cytotoxicity on HCT-116,[3]; 50 µM,67.00±0.12%
same,percentage cytotoxicity on HCT-116,[3]; 100 µM,75.70±0.48%
same,inhibition at 100 µM,"[3]; Homo sapiens, HCT-116, 100 µM, 48 h, read-out: % inhibition ± SD HCT-116",75.7 ± 0.48%
same,IC50,"[3]; Homo sapiens, HCT-116 cells, MTT, read-out: IC50 (mean ± SD) HCT-116",23.6 ± 0.22 µM
same,IC50,[4],87.22 ± 0.73 µM
same,IC50,[5],0.38 ± 0.14 µM
same,IC50,[6],0.04 µM
same,IC50,[7],0.0032 µM
same,%G0-G1,[8],52.69%
same,%G2/M,[8],29.98%
same,%S,[8],17.33%
same,Apoptosis Early,[9],15.77%
same,Apoptosis Late,[9],9.75%
same,Apoptosis Total,[9],29.51
same,Necrosis,[9],3.99%
same,Bax,[10],271.45 pg/mL and 271.45 ± 0.25 pg/mL
same,Bax/Bcl-2,[10],83.01
same,increase in Bax levels compared to untreated control cells,[10],6.2 fold
same,Bcl-2,[11],3.27 ng/mL and 3.27 ± 0.18 ng/mL
same,Bcl-2 protein downregulated versus control,[11],2.6 times
same,P53,[12],930.69 ± 0.55 pg/mL
same,p53 protein level boosted versus control,[12],7.4 times
same,percentage cytotoxicity on A-549,[13]; 12.5 µM,43.13±0.73%
same,percentage cytotoxicity on A-549,[13]; 25 µM,47.60±0.32%
same,percentage cytotoxicity on A-549,[13]; 50 µM,75.53±1.16%
same,percentage cytotoxicity on A-549,[13]; 100 µM,90.00±0.95%
same,inhibition at 100 µM,"[13]; Homo sapiens, A549, 48 h, read-out: % inhibition ± SD A-549",90 ± 0.95%
same,IC50,"[13]; Homo sapiens, A549, read-out: IC50 (mean ± SD) A-549",19.8 ± 0.65 µM
